The record followed here is article PMC4764977, “AZD8797 is an allosteric non-competitive modulator of the human CX3CR1 receptor” (Biochemical Journal, 2016).

Experiment [1] has as its target T1, CX3CR1 (Homo sapiens, UniProt P49238).
T1 sequence (P49238 1-355): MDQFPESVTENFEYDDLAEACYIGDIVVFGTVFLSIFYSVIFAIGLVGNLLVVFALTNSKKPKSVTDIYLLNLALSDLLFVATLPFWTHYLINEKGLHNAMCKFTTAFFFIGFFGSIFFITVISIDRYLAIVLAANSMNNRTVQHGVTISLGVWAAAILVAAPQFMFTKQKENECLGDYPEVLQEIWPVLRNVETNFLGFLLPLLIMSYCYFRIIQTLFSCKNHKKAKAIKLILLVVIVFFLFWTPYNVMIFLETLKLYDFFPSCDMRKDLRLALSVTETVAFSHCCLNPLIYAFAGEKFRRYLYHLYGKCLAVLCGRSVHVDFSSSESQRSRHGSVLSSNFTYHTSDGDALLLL
Kind of experiment: [3H]AZD8797 kinetic radioligand binding, CHO-hCX3CR1 membranes. Details: host or cells: CHO-K1. The procedure:
Assays were performed as described under equilibrium binding studies with the additions stated below. Association experiments on [^3H]AZD8797 were performed by adding 1 · Kd of radioligand in assay buffer in a 96-well plate. The reactions were started by addition of CHO-hCX3CR1 membranes at different time points and then incubated for between 1.5 min and 2 h at room temperature before being filtered. For the [^3H]AZD8797 dissociation experiments 1 · Kd of radioligand was incubated with CHO-hCX3CR1 membranes for 1 h at room temperature before starting the dissociation with the addition of 10 μM unlabelled AZD8797. The reactions were incubated for between 2.5 min and 3 h at room temperature before being filtered.
For the association experiments, the radioligand data were fitted to the following monophasic exponential association equation and the association rate (kon) was calculated using the added amounts of radioligand (L) and dissociation rate (koff) as constants. koff was measured in separate dissociation experiments.
The dissociation data were fitted to the monophasic exponential decay equation: […]
where Y0 is the binding (cpm) at time zero, X is the time and NS is the (non-specific) binding at infinite times. Half-life could then be calculated by dividing ln (2) by koff. Multiple compound dissociation data were fitted to the biphasic exponential decay equation: […]

Experiment [2] has as its target T1, CX3CR1. Kind of experiment: 125I-CX3CL1 competition binding, CHO-hCX3CR1 membranes. Details: host or cells: CHO-K1. As for the experimental part: Adherent CHO-K1 cells stably expressing human CX3CR1 (CHO-hCX3CR1) were grown in F12 medium with GlutaMAX, 10% FBS (Sigma–Aldrich) and 400 μg·ml^−1 geneticin and harvested at 80% confluency. Cells were washed in PBS and lysed with an Ultra-Turrax Homogenizer in 50 mM Tris/HCl (pH 7.4) and 1 mM EDTA with Complete™ protease inhibitor (Roche). […] Protein concentration was determined using the BCA method (Thermo Fisher Scientific). […] The filter plate was washed in ice-cold 25 mM HEPES (pH 7.4), 5 mM MgCl2, 1 mM CaCl2 and 500 mM NaCl and dried at 50°C for 1 h. Scintillation cocktail, Optiphase Supermix (PerkinElmer) was added to each well and the radioactivity was measured using a MicroBeta Trilux reader (PerkinElmer). All analysis and calculations were performed using GraphPad Prism 6.01. Functional and competition binding data were analysed using non-linear regression and fitted to a sigmoidal dose-response with variable slope according to the following equation: […] where Y is the amount of radioligand bound (cpm) or functional effect, Top denotes maximal asymptotic binding, and Bottom denotes the minimal asymptotic binding. XC50 is either the EC50 or the IC50 value, and X is the logarithm of the test compound concentration. Ki values were calculated from IC50 values using the Cheng–Prusoff equation: […]

The target in experiment [3] is T2, CX3CR1 (RPMI-8226 cells) (Homo sapiens, UniProt P49238).
T2 construct: RPMI-8226 cells, a human B-lymphocyte cell line endogenously expressing human CX3CR1; CCL-155; host or cells: RPMI-8226
T2 sequence (P49238 1-355): T1 sequence (P49238 1-355)
Kind of experiment: Dynamic mass redistribution (DMR), RPMI-8226 cells. It counts as cell-based. The procedure: CHO-hCX3CR1 cells were seeded at 12000 cells per well in DMEM with 10% FBS and RPMI-8226 cells at 8000 cells per well in RPMI 1640 medium with GlutaMAX and 20% FBS on 384-well fibronectin-coated EPIC™ biosensor plates (Corning) and cultured at 37°C for 24 h. At 18–24 h prior to compound treatment, the medium was replaced with serum-free medium with or without 100 ng·ml^−1 PTX. Cells were then washed with assay buffer (HBSS, 20 mM HEPES (pH 7.4) and 0.01% BSA) and allowed to equilibrate at 26°C for 1 h inside the EPIC™ plate reader. Following equilibration, a baseline scan was performed before adding AZD8797 or CX3CL1 using a CyBi-Well vario (CyBio). Dynamic mass redistribution (DMR) was then measured during a 60 min scan. As in the [^35S]GTPγS binding assay, the final DMSO concentration was held constant at 1%.

`CC(C)C[C@H](CO)Nc1nc(S[C@@H](C)c2ccccc2)nc2nc(N)sc12` [AZD8797] showed a koff in experiment [1] (dissociation started with 10 μM unlabelled AZD8797, n=2) of 0.0007 s⁻¹. The compound further gave a kon in experiment [1] (from kobs (n=5) and koff, room temperature) of 233000 M⁻¹ s⁻¹. The Dissociation half-life result in experiment [1] (from koff) is reported as “approximately 17 min”. The Kd in experiment [1] (koff/kon, read-out: Kd from rate constants) was determined as 2.9 nM. Moreover, the “Lower potency than unlabelled CX3CL1 in displacing 125I-CX3CL1” value in experiment [2] is 1000 fold. The EC50 in experiment [2] (10 pM 125I-CX3CL1, n=3, read-out: EC50, displacement of 125I-CX3CL1) worked out at 310 nM; in experiment [3] (n=3), 410 nM. Besides, in experiment [3] (100 ng·ml^−1 PTX), the “Effect of PTX treatment on DMR signal” value is recorded as “reduced”.
